Assay results: the NIST ThermoML archive (doi:10.1007/s10765-009-0622-2)

Assays:
[1] = xn = mol fraction of the nth substance listed; conditions: 298.15 K, 101 kPa, Liquid
[2] = 298.15 K; 101.33 kPa; Liquid

Cc1cccc(C)c1 [1,3-dimethylbenzene] + CCCCCC
[1]
Conditions	viscosity [mPa·s]
x2 = 0.1329	0.4984
x2 = 0.1519	0.4896
x2 = 0.2717	0.4418
x2 = 0.339	0.4221
x2 = 0.4303	0.3978
x2 = 0.448	0.3935
x2 = 0.5734	0.3652
x2 = 0.643	0.3513
x2 = 0.6663	0.3473
x2 = 0.719	0.3389
x2 = 0.8049	0.3238
x2 = 0.873	0.3175
x2 = 0.9278	0.3115

Cc1ccccc1C [1,2-dimethylbenzene]
[2]
Conditions	mass density [kg/m3]	viscosity [mPa·s]
–	874.89	0.7506

Cc1ccc(C)cc1 [1,4-dimethylbenzene] + CCCCCC
[1]
Conditions	mass density [kg/m3]	viscosity [mPa·s]
x2 = 0.0423	847.8	0.566
x2 = 0.1073	834.45	0.5235
x2 = 0.2137	812.6	0.4702
x2 = 0.2956	795.81	0.4378
x2 = 0.3769	779.21	0.4119
x2 = 0.4201	770.42	0.3998
x2 = 0.5355	747.03	0.3717
x2 = 0.562	741.69	0.3654
x2 = 0.6427	725.47	0.3502
x2 = 0.7455	704.95	0.3324
x2 = 0.7909	695.94	0.3256
x2 = 0.8792	678.48	0.313
x2 = 0.9599	662.62	0.3024

CCCCCC [hexane]
[2]
Conditions	mass density [kg/m3]	viscosity [mPa·s]
–	654.7	0.2973

CCc1ccccc1 [ethylbenzene]
[2]
Conditions	mass density [kg/m3]	viscosity [mPa·s]
–	862.37	0.6369

Cc1cccc(C)c1 [1,3-dimethylbenzene]
[2]
Conditions	mass density [kg/m3]	viscosity [mPa·s]
–	859.78	0.583

CCc1ccccc1 [ethylbenzene] + CCCCCC
[1]
Conditions	viscosity [mPa·s]
x2 = 0.0437	0.6071
x2 = 0.0884	0.5751
x2 = 0.183	0.5169
x2 = 0.2262	0.4791
x2 = 0.2774	0.4672
x2 = 0.3283	0.445
x2 = 0.3784	0.4234
x2 = 0.4359	0.4047
x2 = 0.488	0.3902
x2 = 0.5429	0.3761
x2 = 0.5916	0.3654
x2 = 0.6534	0.3527
x2 = 0.705	0.3426
x2 = 0.7644	0.3326
x2 = 0.809	0.325
x2 = 0.8882	0.313
x2 = 0.9478	0.3046

Cc1ccccc1C [1,2-dimethylbenzene] + CCCCCC
[1]
Conditions	mass density [kg/m3]	viscosity [mPa·s]
x2 = 0.052	863.09	0.678
x2 = 0.1413	842.86	0.5944
x2 = 0.2482	818.74	0.5239
x2 = 0.2901	809.33	0.493
x2 = 0.355	794.79	0.462
x2 = 0.4004	784.66	0.4425
x2 = 0.4815	766.65	0.4126
x2 = 0.51	760.35	0.4031
x2 = 0.5856	743.71	0.3816
x2 = 0.6351	732.88	0.3711
x2 = 0.6753	724.12	0.3632
x2 = 0.7858	700.23	0.3344
x2 = 0.8317	690.38	0.3264
x2 = 0.9014	675.52	0.314

Cc1ccc(C)cc1 [1,4-dimethylbenzene]
[2]
Conditions	mass density [kg/m3]	viscosity [mPa·s]
–	856.51	0.5999
